Values of other authors, collected in patent US20240216546A1, “MODEL OPTIMIZED DRUG AND DRUG COMBINATIONS FOR TREATING CANCERS” (My Personal Therapeutics, priority 2021, published 2024).

Test system: non-small cell lung cancer
Details: erlotinib in combination with first line chemotherapy (carboplatin and paclitaxel)
[1] = patients with the KRAS mutation

Structure (SMILES): C#Cc1cccc(Nc2ncnc3cc(OCCOC)c(OCCOC)cc23)c1 [erlotinib]
- time-to-progression (group with wild-type KRAS): 12 months
- overall survival [1]: four
- time to progression [1]: three
